# From paper PMC7954794, “Protein context shapes the specificity of SH3 domain-mediated interactions in vivo” (Nature Communications, 2021)
# Assays:
# [1] = tested on: PPIs identified as affected by the SH3 domain deletions; test: Liquid DHFR-PCA low-throughput validation of PPIs affected by SH3 deletion (Fig. S1D-E); type: cell-based, Saccharomyces cerevisiae; settings: Deletedscore/WTscore
# Method: Liquid DHFR-PCA low-throughput experiments were performed to validate the PPIs identified as affected by the SH3 domain deletions in the high-throughput solid DHFR-PCA screen (256 PPIs weaker or lost and 116 PPIs stronger or gained following domain deletions). Mating and the diploid selection were performed as described for the large-scale experiment, with the exception that the plates were in 384 formats. Following the second diploid selection, diploid cells were inoculated in a 96 v-shaped well plate using a robotically manipulated 96 pin tool in a synthetic complete medium with MSG at pH 6.0 with NAT and HPH. After 48 h of growth, optical density (OD) was read using a TECAN Infinite F200 Pro, and dilutions to 1 OD in sterile nanopure water were prepared. Cells were then diluted to 0.1 OD by combining 25 µl of cell suspension at OD = 1 and 225 µl of PCA selection media without agar in a 96-wells plate. Plates were incubated at 30 °C in a TECAN Infinite M Nano and OD was monitored each 15 min for 72 h.
# [2] = tested on: growth of yeast strains under 51 stress conditions; test: Growth assays in 51 stress conditions (Fig. 1E-F, S2D, S5B); type: cell-based, Saccharomyces cerevisiae; design: key to Growth (Fig. S2D) / growth of ABP1 SH3-swapped strains in stress condition: log2 colony size, average of median per strain (growth score); settings: for growth of ABP1 SH3-swapped strains in stress condition: FigS2D; for Growth (Fig. S2D): ABP1 SH3-swapped strains
# Method: All WT, SH3-deleted, KO (except for CDC25 which is the only essential SH3-containing gene in yeast), ABP1 SH3-swapped, and SLA1 SH3-shuffled strains were grown on omnitrays in 1536 formats and robotically manipulated with a pin tool (the DHFR F[1,2] bait strains were used except for the KO strains). Each strain was randomly positioned in 6 replicates per plate and two plates per condition were performed, for 12 replicates per strain in total. A border of two rows and two columns of WT strains (BY4741) around the plate was used to remove border effects. Strains were grown on YPD media for two days at 30 °C. They were then replicated on 51 different media that are described in the Supplementary Table 3 and were incubated at 37 °C in a spImager custom platform with images acquired every two hours for four days. The colony sizes from plate pictures were also measured with the R package “Gitter” and the output was manually inspected. Positions with an abnormality in colony circularity were removed. The colony sizes after 74 h of incubation at 37 °C were log2 transformed and used for the analyses. First, the differences between the two plate replicates were corrected to remove plate effects. The median colony size was calculated for each strain per plate. Strains with a difference in their median colony size of more than two between the two plate replicates were removed. Finally, the average of the median colony size was calculated for each strain per condition (growth score).
substance,measurement,setting,value
RVS167,Ratio,[1]; prey YLR144C_1,0.9983
same,Ratio,[1]; prey YLR166C_1,0.4047
same,Ratio,[1]; prey YLR314C_1,1.009
same,Ratio,[1]; prey YLR332W_1,0.5527
same,Ratio,[1]; prey YML016C_1,0.7209
same,Ratio,[1]; prey YMR192W_1,0.4415
same,Ratio,[1]; prey YNL084C_1,0.8207
same,Ratio,[1]; prey YNL106C_1,0.4642
same,Ratio,[1]; prey YNL255C_1,0.9975
same,Ratio,[1]; prey YPL246C_1,0.6027
same,Ratio,[1]; prey YPL249C_1,0.4423
same,Ratio,[1]; prey YPR055W_1,0.5489
same,growth of ABP1 SH3-swapped strains in stress condition,[2]; Bathophenanthroline.0.1uM,10.8266
same,growth of ABP1 SH3-swapped strains in stress condition,[2]; Bathophenanthroline.10uM,10.6504
same,growth of ABP1 SH3-swapped strains in stress condition,[2]; Bathophenanthroline.1uM,10.7571
same,growth of ABP1 SH3-swapped strains in stress condition,[2]; CaCl2.100mM,10.7957
same,growth of ABP1 SH3-swapped strains in stress condition,[2]; CaCl2.250mM,10.7147
same,growth of ABP1 SH3-swapped strains in stress condition,[2]; CaCl2.500mM,10.2304
same,growth of ABP1 SH3-swapped strains in stress condition,[2]; Caffein.10mM,10.0011
same,growth of ABP1 SH3-swapped strains in stress condition,[2]; Caffein.2mM,10.9656
same,growth of ABP1 SH3-swapped strains in stress condition,[2]; CdCl2.100uM,9.478
same,growth of ABP1 SH3-swapped strains in stress condition,[2]; CdCl2.10uM,10.8675
same,growth of ABP1 SH3-swapped strains in stress condition,[2]; CdCl2.50uM,10.0052
same,growth of ABP1 SH3-swapped strains in stress condition,[2]; CuSO4.1mM,10.4401
same,growth of ABP1 SH3-swapped strains in stress condition,[2]; CuSO4.5mM,7.809
same,growth of ABP1 SH3-swapped strains in stress condition,[2]; Cycloheximide.0.05.uM,11.0732
same,growth of ABP1 SH3-swapped strains in stress condition,[2]; Cycloheximide.0.2.uM,10.5897
same,growth of ABP1 SH3-swapped strains in stress condition,[2]; Cycloheximide.0.5.uM,10.0755
same,growth of ABP1 SH3-swapped strains in stress condition,[2]; DMSO.2.,10.9922
same,growth of ABP1 SH3-swapped strains in stress condition,[2]; DMSO.6.,9.827
same,growth of ABP1 SH3-swapped strains in stress condition,[2]; DMSO.8.,9.078
same,growth of ABP1 SH3-swapped strains in stress condition,[2]; Ethanol.2.,10.7562
same,growth of ABP1 SH3-swapped strains in stress condition,[2]; Ethanol.6.,10.3054
same,growth of ABP1 SH3-swapped strains in stress condition,[2]; Ethanol.8.,10.1073
same,growth of ABP1 SH3-swapped strains in stress condition,[2]; Galactose.2.,10.7616
same,growth of ABP1 SH3-swapped strains in stress condition,[2]; Glycerol.2.,9.801
same,growth of ABP1 SH3-swapped strains in stress condition,[2]; Hydroxyurea.25mM,10.7452
same,growth of ABP1 SH3-swapped strains in stress condition,[2]; Hygromycin.190uM,10.9449
same,growth of ABP1 SH3-swapped strains in stress condition,[2]; Hygromycin.19uM,10.972
same,growth of ABP1 SH3-swapped strains in stress condition,[2]; Hygromycin.95uM,11.0099
same,growth of ABP1 SH3-swapped strains in stress condition,[2]; MMS.0.004.,10.8938
same,growth of ABP1 SH3-swapped strains in stress condition,[2]; MMS.0.02.,10.6752
same,growth of ABP1 SH3-swapped strains in stress condition,[2]; MMS.0.04.,9.941
same,growth of ABP1 SH3-swapped strains in stress condition,[2]; Menadione.100uM,10.5548
same,growth of ABP1 SH3-swapped strains in stress condition,[2]; Menadione.200uM,10.4212
same,growth of ABP1 SH3-swapped strains in stress condition,[2]; Menadione.50uM,10.7634
same,growth of ABP1 SH3-swapped strains in stress condition,[2]; NaCl.0.25M,10.7655
same,growth of ABP1 SH3-swapped strains in stress condition,[2]; NaCl.1M,9.597
same,growth of ABP1 SH3-swapped strains in stress condition,[2]; Nitroquinoline.10uM,10.6917
same,growth of ABP1 SH3-swapped strains in stress condition,[2]; Nitroquinoline.50uM,10.5789
same,growth of ABP1 SH3-swapped strains in stress condition,[2]; Nystatin.0.01uM,10.9774
same,growth of ABP1 SH3-swapped strains in stress condition,[2]; Nystatin.0.1uM,10.9878
same,growth of ABP1 SH3-swapped strains in stress condition,[2]; Raffinose.2.,11.0045
same,growth of ABP1 SH3-swapped strains in stress condition,[2]; Rapamycin.10nM,9.889
same,growth of ABP1 SH3-swapped strains in stress condition,[2]; Rapamycin.50nM,9.373
same,growth of ABP1 SH3-swapped strains in stress condition,[2]; SC.pH3,10.3957
same,growth of ABP1 SH3-swapped strains in stress condition,[2]; SC.pH6,10.965
same,growth of ABP1 SH3-swapped strains in stress condition,[2]; SDS.0.01.,10.9519
same,growth of ABP1 SH3-swapped strains in stress condition,[2]; SDS.0.02.,11.0022
same,growth of ABP1 SH3-swapped strains in stress condition,[2]; SDS.0.05.,10.8383
same,growth of ABP1 SH3-swapped strains in stress condition,[2]; Sorbitol.10mM,10.9602
same,growth of ABP1 SH3-swapped strains in stress condition,[2]; Sorbitol.1mM,11.0196
same,growth of ABP1 SH3-swapped strains in stress condition,[2]; Sorbitol.5mM,10.9136
CDC25,Growth (Fig. S2D),[2]; Bathophenanthroline.0.1uM,10.8311
same,Growth (Fig. S2D),[2]; Bathophenanthroline.10uM,10.71
same,Growth (Fig. S2D),[2]; Bathophenanthroline.1uM,10.807
same,Growth (Fig. S2D),[2]; CaCl2.100mM,10.8749
same,Growth (Fig. S2D),[2]; CaCl2.250mM,10.774
same,Growth (Fig. S2D),[2]; CaCl2.500mM,10.2891
same,Growth (Fig. S2D),[2]; Caffein.10mM,10.1016
same,Growth (Fig. S2D),[2]; Caffein.2mM,11.0786
same,Growth (Fig. S2D),[2]; CdCl2.100uM,9.608
same,Growth (Fig. S2D),[2]; CdCl2.10uM,10.8752
same,Growth (Fig. S2D),[2]; CdCl2.50uM,9.913
same,Growth (Fig. S2D),[2]; CuSO4.1mM,10.4484
same,Growth (Fig. S2D),[2]; CuSO4.5mM,7.922
same,Growth (Fig. S2D),[2]; Cycloheximide.0.05.uM,11.0566
same,Growth (Fig. S2D),[2]; Cycloheximide.0.2.uM,10.636
same,Growth (Fig. S2D),[2]; Cycloheximide.0.5.uM,10.117
same,Growth (Fig. S2D),[2]; DMSO.2.,11.0377
same,Growth (Fig. S2D),[2]; DMSO.6.,9.934
same,Growth (Fig. S2D),[2]; DMSO.8.,9.291
same,Growth (Fig. S2D),[2]; Ethanol.2.,10.7941
same,Growth (Fig. S2D),[2]; Ethanol.6.,10.2979
same,Growth (Fig. S2D),[2]; Ethanol.8.,10.0965
same,Growth (Fig. S2D),[2]; Galactose.2.,10.7721
same,Growth (Fig. S2D),[2]; Glycerol.2.,9.727
same,Growth (Fig. S2D),[2]; Hydroxyurea.25mM,10.7845
same,Growth (Fig. S2D),[2]; Hygromycin.190uM,10.9998
same,Growth (Fig. S2D),[2]; Hygromycin.19uM,11.0292
same,Growth (Fig. S2D),[2]; Hygromycin.95uM,11.0306
same,Growth (Fig. S2D),[2]; MMS.0.004.,10.9713
same,Growth (Fig. S2D),[2]; MMS.0.02.,10.7211
same,Growth (Fig. S2D),[2]; MMS.0.04.,9.98
same,Growth (Fig. S2D),[2]; Menadione.100uM,10.5959
same,Growth (Fig. S2D),[2]; Menadione.200uM,10.4955
same,Growth (Fig. S2D),[2]; Menadione.50uM,10.8366
same,Growth (Fig. S2D),[2]; NaCl.0.25M,10.7898
same,Growth (Fig. S2D),[2]; NaCl.1M,9.773
same,Growth (Fig. S2D),[2]; Nitroquinoline.10uM,10.6639
same,Growth (Fig. S2D),[2]; Nitroquinoline.50uM,10.6019
same,Growth (Fig. S2D),[2]; Nystatin.0.01uM,11.0504
same,Growth (Fig. S2D),[2]; Nystatin.0.1uM,11.1
same,Growth (Fig. S2D),[2]; Raffinose.2.,11.0411
same,Growth (Fig. S2D),[2]; Rapamycin.10nM,9.922
same,Growth (Fig. S2D),[2]; Rapamycin.50nM,9.425
same,Growth (Fig. S2D),[2]; SC.pH3,10.4587
same,Growth (Fig. S2D),[2]; SC.pH6,11.0388
same,Growth (Fig. S2D),[2]; SDS.0.01.,11.0329
same,Growth (Fig. S2D),[2]; SDS.0.02.,11.0194
same,Growth (Fig. S2D),[2]; SDS.0.05.,10.8768
same,Growth (Fig. S2D),[2]; Sorbitol.10mM,11.0003
same,Growth (Fig. S2D),[2]; Sorbitol.1mM,11.0466
same,Growth (Fig. S2D),[2]; Sorbitol.5mM,10.9359
